Measured values published in the supplement of paper PMC10307832.

Key:
Assay in all cases: relative viability (nuclei count vs DMSO), 5 days (fraction); higher = more cells survive
MLN4924 + AZD7762 = compound: NS(=O)(=O)OC[C@@H]1C[C@@H](n2ccc3c(N[C@H]4CCc5ccccc54)ncnc32)C[C@@H]1O [MLN4924] + NC(=O)Nc1cc(-c2cccc(F)c2)sc1C(=O)N[C@H]1CCCNC1 [AZD7762] (partner 0.2 µM)
Method in brief: (§1)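 Lung cancer cell lines, seeded in 1536-well plates, were treated the following day by pin tool with a single drug or with five library-drug doses (not always all listed) in √10 steps on top of a fixed anchor-drug dose. Cells were fixed and nuclei stained in one step after 5 days, and nuclei were counted. Relative viability is the nuclei count for treated wells divided by that for vehicle wells, reported as medians of duplicate plates.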

MLN4924 + Trametinib = compound: NS(=O)(=O)OC[C@@H]1C[C@@H](n2ccc3c(N[C@H]4CCc5ccccc54)ncnc32)C[C@@H]1O [MLN4924] + CC(=O)Nc1cccc(-n2c(=O)n(C3CC3)c(=O)c3c(Nc4ccc(I)cc4F)n(C)c(=O)c(C)c32)c1 [Trametinib] (partner 0.02 µM)
Method in brief: as §1

Carboplatin + Pictilisib = compound: C1CC(C1)(C(=O)O)C(=O)O.[NH2-].[NH2-].[Pt+2] [Carboplatin] + CS(=O)(=O)N1CCN(Cc2cc3nc(-c4cccc5[nH]ncc45)nc(N4CCOCC4)c3s2)CC1 [Pictilisib] (partner 1 µM)
Method in brief: as §1

MLN4924 + Palbociclib = compound: NS(=O)(=O)OC[C@@H]1C[C@@H](n2ccc3c(N[C@H]4CCc5ccccc54)ncnc32)C[C@@H]1O [MLN4924] + CC(=O)c1c(C)c2cnc(Nc3ccc(N4CCNCC4)cn3)nc2n(C2CCCC2)c1=O [Palbociclib] (partner 0.5 µM)
Method in brief: as §1

Cell Line	relative viability (MLN4924 + AZD7762; first compound 0.04 µM)	relative viability (MLN4924 + AZD7762; first compound 0.1265 µM)	relative viability (MLN4924 + AZD7762; first compound 0.4 µM)	relative viability (MLN4924 + AZD7762; first compound 1.265 µM)	relative viability (MLN4924 + AZD7762; first compound 4 µM)	relative viability (MLN4924 + Trametinib; first compound 0.04 µM)	relative viability (MLN4924 + Trametinib; first compound 0.1265 µM)	relative viability (MLN4924 + Trametinib; first compound 0.4 µM)	relative viability (MLN4924 + Trametinib; first compound 1.265 µM)	relative viability (MLN4924 + Trametinib; first compound 4 µM)	relative viability (Carboplatin + Pictilisib; first compound 0.08 µM)	relative viability (Carboplatin + Pictilisib; first compound 0.253 µM)	relative viability (Carboplatin + Pictilisib; first compound 0.8 µM)	relative viability (Carboplatin + Pictilisib; first compound 2.53 µM)	relative viability (Carboplatin + Pictilisib; first compound 8 µM)	relative viability (MLN4924 + Palbociclib; first compound 0.04 µM)	relative viability (MLN4924 + Palbociclib; first compound 0.1265 µM)	relative viability (MLN4924 + Palbociclib; first compound 0.4 µM)	relative viability (MLN4924 + Palbociclib; first compound 1.265 µM)	relative viability (MLN4924 + Palbociclib; first compound 4 µM)
EKVX	0.854	0.784	0.674	0.314	0.232	0.314	0.349	0.319	0.244	0.193	0.452	0.422	0.413	0.381	0.387	0.389	0.362	0.334	0.188	0.142
EMC-BAC-2	1.06	0.869	0.377	0.224	0.288	0.762	0.589	0.466	0.324	0.35	0.48	0.538	0.476	0.56	0.466	0.559	0.431	0.386	0.265	0.312
EPLC-272H	0.27	0.239	0.0814	0.133	0.106	0.339	0.333	0.0863	0.147	0.126	0.373	0.305	0.313	0.322	0.349	0.29	0.281	0.102	0.232	0.181
H3255	0.784	0.797	0.457	0.267	0.33	0.591	0.53	0.409	0.304	0.306	0.54	0.504	0.375	0.407	0.425	0.299	0.283	0.259	0.308	0.274
HARA	0.42	0.328	0.415	0.0749	0.106	0.671	0.79	0.357	0.114	0.111	0.424	0.341	0.387	0.382	0.391	0.324	0.233	0.169	0.0893	0.147
HCC-15	1.13	0.971	0.645	0.0981	0.125	0.362	0.279	0.191	0.105	0.106	0.781	0.715	0.749	0.702	0.498	0.477	0.172	0.196	0.0952	0.101
HCC-44	1.03	0.992	0.824	0.563	0.478	0.962	0.844	0.814	0.447	0.368	0.577	0.552	0.666	0.554	0.592	1	0.756	0.793	0.636	0.45
HCC-78	0.665	0.754	0.981	0.265	0.251	0.798	0.509	1.13	0.268	0.243	0.213	0.228	0.194	0.217	0.21	0.52	0.462	0.472	0.422	0.418
